The text below walks through data of patent US6583180B2, “Glucocorticoid receptor modulators” (Abbott Laboratories, priority 2001, dated 2003).

The assay concerns the target T1, Human glucocorticoid receptors (Homo sapiens, UniProt P04150).
T1 construct: made in house; host or cells: Sf9 insect cells, recombinant baculovirus (BAC-TO-BAC)
T1 sequence (P04150 1-777): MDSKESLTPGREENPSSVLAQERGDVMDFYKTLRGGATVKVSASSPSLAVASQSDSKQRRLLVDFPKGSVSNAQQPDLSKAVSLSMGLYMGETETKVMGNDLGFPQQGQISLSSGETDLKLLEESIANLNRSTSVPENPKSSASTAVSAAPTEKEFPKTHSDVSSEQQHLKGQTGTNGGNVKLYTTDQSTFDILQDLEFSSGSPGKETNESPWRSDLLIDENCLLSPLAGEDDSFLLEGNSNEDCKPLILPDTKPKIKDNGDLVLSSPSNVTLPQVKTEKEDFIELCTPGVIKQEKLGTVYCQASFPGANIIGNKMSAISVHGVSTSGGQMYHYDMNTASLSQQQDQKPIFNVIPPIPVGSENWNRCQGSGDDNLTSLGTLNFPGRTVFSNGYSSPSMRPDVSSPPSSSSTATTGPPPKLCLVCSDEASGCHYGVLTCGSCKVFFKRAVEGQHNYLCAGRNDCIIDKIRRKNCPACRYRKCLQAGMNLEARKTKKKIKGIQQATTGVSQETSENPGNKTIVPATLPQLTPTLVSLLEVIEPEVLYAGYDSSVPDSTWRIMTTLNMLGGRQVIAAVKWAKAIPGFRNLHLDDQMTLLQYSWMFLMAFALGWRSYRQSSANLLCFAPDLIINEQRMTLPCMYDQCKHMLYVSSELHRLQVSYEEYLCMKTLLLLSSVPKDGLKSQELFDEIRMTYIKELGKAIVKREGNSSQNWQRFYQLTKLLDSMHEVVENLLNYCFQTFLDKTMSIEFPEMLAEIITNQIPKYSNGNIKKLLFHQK
Put plainly: Radioligand filter binding assay, displacement of 3[H]-dexamethasone from hGR. To be noted: read-out: GR Binding (% Inhibition at 1.7 μM). A digest of the protocol: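 Recombinant hGR extract from baculovirus-infected Sf9 cells (final ~1 nM receptor) incubated with ³H-dexamethasone and test compound dilutions in duplicate, EDTA/phosphate pH 8 buffer with MTG, overnight (15-20 h) at +4° C. Bound label collected on PEI-treated GF/B filters and scintillation-counted; IC50 from four-parameter fit of corrected cpm.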
Usually inhibition stands for the drop in the measured response relative to a control, in per cent. With `Cc1c(NS(C)(=O)=O)cccc1N(Cc1ccccc1)Cc1ccc(Oc2cccc(OCCCC(=O)N3CCCC(C(=O)O)C3)c2)cc1` (stereo not shown) [Example 279, 1-[4-(3-{4-[(benzyl{2-methyl-3-[(methylsulfonyl)amino]phenyl}amino)methyl]phenoxy}phenoxy)butanoyl]piperidine-3-carboxylic acid], the inhibition at 1.7 µM turned out to be 91.7%.
On to `Cc1c(NS(C)(=O)=O)cccc1N(Cc1ccccc1)Cc1ccc(Oc2cccc(OCCCC(=O)N3CCC(C(=O)O)CC3)c2)cc1` [Example 280, 1-[4-(3-{4-[(benzyl{2-methyl-3-[(methylsulfonyl)amino]phenyl}amino)methyl]phenoxy}phenoxy)butanoyl]piperidine-4-carboxylic acid], for which the inhibition at 1.7 µM turned out to be 89.5%.
The figure for `Cc1c(NS(C)(=O)=O)cccc1N(Cc1ccccc1)Cc1ccc(Oc2cccc(OCCCC(=O)N3CCCCC3C(=O)O)c2)cc1` (stereo not shown) [Example 281, 1-[4-(3-{4-[(benzyl{2-methyl-3-[(methylsulfonyl)amino]phenyl}amino)methyl]phenoxy}phenoxy)butanoyl]piperidine-2-carboxylic acid] is 90%.
On to `Cc1c(NS(C)(=O)=O)cccc1N(Cc1ccccc1)Cc1ccc(Oc2cccc(OCCCC(=O)N3CCC[C@H]3C(=O)O)c2)cc1` [Example 282, 1-[4-(3-{4-[(benzyl{2-methyl-3-[(methylsulfonyl)amino]phenyl}amino)methyl]phenoxy}phenoxy)butanoyl]proline], for which the inhibition at 1.7 µM is 89.9%.
Regarding `Cc1c(NS(C)(=O)=O)cccc1N(Cc1ccccc1)Cc1ccc(Oc2cccc(OCC3(C)COC3)c2)cc1` [Example 283, N-{3-[benzyl(4-{3-[(3-methyloxetan-3-yl)methoxy]phenoxy}benzyl)amino]-2-methylphenyl}methanesulfonamide], the inhibition at 1.7 µM turned out to be 89.7%.
Consider `Cc1c(NS(C)(=O)=O)cccc1N(Cc1ccccc1)Cc1ccc(Oc2cccc(OCC3CC3C(=O)O)c2)cc1` (stereo not shown) [Example 284, 2-[(3-{4-[(benzyl{2-methyl-3-[(methylsulfonyl)amino]phenyl}amino)methyl]phenoxy}phenoxy)methyl]cyclopropanecarboxylic acid], for which the inhibition at 1.7 µM stood at 89.6%.
In the case of `Cc1c(NS(C)(=O)=O)cccc1N(Cc1ccccc1)Cc1ccc(Oc2cccc(OC[C@H](O)CO)c2)cc1` [Example 285, N-(3-{benzyl[4-(3-{[(2R)-2,3-dihydroxypropyl]oxy}phenoxy)benzyl]amino}-2-methylphenyl)methanesulfonamide], the inhibition at 1.7 µM was 89.7%.
The figure for `Cc1c(NS(C)(=O)=O)cccc1N(Cc1ccccc1)Cc1ccc(Oc2cccc(OC3CCC(C(=O)O)CC3)c2)cc1` (stereo not shown) [Example 286, 4-(3-{4-[(benzyl{2-methyl-3-[(methylsulfonyl)amino]phenyl}amino)methyl]phenoxy}phenoxy)cyclohexanecarboxylic acid] is 92.6%; for `Cc1c(NS(C)(=O)=O)cccc1N(Cc1ccccc1)Cc1ccc(Oc2cccc(OC3CCOCC3)c2)cc1` [Example 287, N-[3-(benzyl{4-[3-(tetrahydro-2H-pyran-4-yloxy)phenoxy]benzyl}amino)-2-methylphenyl]methanesulfonamide] it is 89.2%; for `Cc1c(NS(C)(=O)=O)cccc1N(Cc1ccccc1)Cc1ccc(Oc2cccc(OC3CCOC3)c2)cc1` (stereo not shown) [Example 288, N-[3-(benzyl{4-[3-(tetrahydrofuran-3-yloxy)phenoxy]benzyl}amino)-2-methylphenyl]methanesulfonamide] it is 89.8%.
To `Cc1c(NS(C)(=O)=O)cccc1N(Cc1ccccc1)Cc1ccc(Oc2cccc(OC[C@@H]3CCCN3C)c2)cc1` [Example 289, N-(3-{benzyl[4-(3-{[(2S)-1-methylpyrrolidin-2-yl]methoxy}phenoxy)benzyl]amino}-2-methylphenyl)methanesulfonamide] belongs 87.8%; to `Cc1c(NS(C)(=O)=O)cccc1N(Cc1ccccc1)Cc1ccc(Oc2cccc(OCc3cccnc3)c2)cc1` [Example 290, N-[3-(benzyl{4-[3-(pyridin-3-ylmethoxy)phenoxy]benzyl}amino)-2-methylphenyl]methanesulfonamide], 89.1%; to `Cc1c(NS(C)(=O)=O)cccc1N(Cc1ccccc1)Cc1ccc(Oc2cccc(OC[C@@H]3CCCN3)c2)cc1` [Example 291, N-{3-[benzyl(4-{3-[(2S)-pyrrolidin-2-ylmethoxy]phenoxy}benzyl)amino]-2-methylphenyl}methanesulfonamide], 87.7%.
The figure for `Cc1c(NS(C)(=O)=O)cccc1N(Cc1ccccc1)Cc1ccc(Oc2cccc(OC3CCN(C)C3)c2)cc1` (stereo not shown) [Example 292, N-{3-[benzyl(4-{3-[(1-methylpyrrolidin-3-yl)oxy]phenoxy}benzyl)amino]-2-methylphenyl}methanesulfonamide] is 89.4%; for `Cc1c(NS(C)(=O)=O)cccc1N(Cc1ccc(Oc2ccc(Cl)c(OCC(=O)O)c2)cc1)Cc1ccccc1F` [Example 306, (2-chloro-5-(4-(((2-fluorobenzyl)(2-methyl-3-((methylsulfonyl)amino)phenyl)amino)methyl)phenoxy)phenoxy)acetic acid] it is 97%.
Consider `Cc1c(NS(C)(=O)=O)cccc1N(Cc1ccc(Oc2ccc(Cl)c(OCC(=O)O)c2)cc1)Cc1ccccc1Br` [Example 307, (5-(4-(((2-bromobenzyl)(2-methyl-3-((methylsulfonyl)amino)phenyl)amino)methyl)phenoxy)-2-chlorophenoxy)acetic acid], for which the inhibition at 1.7 µM came to 97%.
To `Cc1c(NS(C)(=O)=O)cccc1N(Cc1ccc(Br)cc1)Cc1ccc(Oc2ccc(Cl)c(OCC(=O)O)c2)cc1` [Example 308, (5-(4-(((4-bromobenzyl)(2-methyl-3-((methylsulfonyl)amino)phenyl)amino)methyl)phenoxy)-2-chlorophenoxy)acetic acid] belongs 95.7%; to `Cc1c(NS(C)(=O)=O)cccc1N(Cc1ccc(Oc2ccc(Cl)c(OCC(=O)O)c2)cc1)Cc1ccc(Cl)cc1Cl` [Example 309, (2-chloro-5-(4-(((2,4-dichlorobenzyl)(2-methyl-3-((methylsulfonyl)amino)phenyl)amino)methyl)phenoxy)phenoxy)acetic acid], 97.4%.
The figure for `Cc1c(NS(C)(=O)=O)cccc1N(Cc1ccc(Oc2ccc(Cl)c(OCC(=O)O)c2)cc1)Cc1ccc(Cl)cc1F` [Example 310, (2-chloro-5-(4-(((4-chloro-2-fluorobenzyl)(2-methyl-3-((methylsulfonyl)amino)phenyl)amino)methyl)phenoxy)phenoxy)acetic acid] is 97.5%.
In the case of `Cc1c(NS(C)(=O)=O)cccc1N(Cc1ccc(Oc2ccc(Cl)c(OCC(=O)O)c2)cc1)Cc1ccc(F)cc1Cl` [Example 311, (2-chloro-5-(4-(((2-chloro-4-fluorobenzyl)(2-methyl-3-((methylsulfonyl)amino)phenyl)amino)methyl)phenoxy)phenoxy)acetic acid], the inhibition at 1.7 µM amounted to 97.4%.
As for `Cc1c(NS(C)(=O)=O)cccc1N(Cc1ccc(Oc2ccc(Cl)c(OCC(=O)O)c2)cc1)Cc1ccc(Cl)cc1Br` [Example 312, (5-(4-(((2-bromo-4-chlorobenzyl)(2-methyl-3-((methylsulfonyl)amino)phenyl)amino)methyl)phenoxy)-2-chlorophenoxy)acetic acid], the inhibition at 1.7 µM was found to be 97.3%.
With `Cc1c(NS(C)(=O)=O)cccc1N(Cc1ccc(Oc2ccc(Cl)c(OCC(=O)O)c2)cc1)Cc1ccc(F)c(F)c1` [Example 313, (2-chloro-5-(4-(((3,4-difluorobenzyl)(2-methyl-3-((methylsulfonyl)amino)phenyl)amino)methyl)phenoxy)phenoxy)acetic acid], the inhibition at 1.7 µM is 96.3%.
To `Cc1c(NS(C)(=O)=O)cccc1N(Cc1ccc(Oc2ccc(Cl)c(OCC(=O)O)c2)cc1)Cc1ccc(C(=O)c2ccccc2)cc1` [Example 314, (5-(4-(((4-benzoylbenzyl)(2-methyl-3-((methylsulfonyl)amino)phenyl)amino)methyl)phenoxy)-2-chlorophenoxy)acetic acid] belongs 96.6%; to `Cc1c(NS(C)(=O)=O)cccc1N(Cc1ccc(Oc2ccc(Cl)c(OCC(=O)O)c2)cc1)Cc1ccc(Br)cc1F` [Example 315, (5-(4-(((4-bromo-2-fluorobenzyl)(2-methyl-3-((methylsulfonyl)amino)phenyl)amino)methyl)phenoxy)-2-chlorophenoxy)acetic acid], 97%; to `Cc1c(NS(C)(=O)=O)cccc1N(Cc1ccc(Oc2ccc(Cl)c(OCC(=O)NCC(=O)O)c2)cc1)Cc1ccc(F)cc1F` [Example 316, N-((2-chloro-5-(4-(((2,4-difluorobenzyl)(2-methyl-3-((methylsulfonyl)amino)phenyl)amino)methyl)phenoxy)phenoxy)acetyl)glycine], 96.3%.
